Reference: ChEMBL document CHEMBL1201861, “Genomics of Drug Sensitity in Cancer screening data, Wellcome Trust Sanger Institute”
pIC50: −log10 of the molar value.

Legend:
Test in all cases: cells
[1] = tested on: CP50-MEL-B; format: functional, cell-based, Homo sapiens; conditions: Homo sapiens, CP50-MEL-B;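 note: growth inhibition of the human cell line, measured with a cell viability read-out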
Description: SANGER: Inhibition of human CP50-MEL-B cell growth in a cell viability assay.

[2] = tested on: DEL; format: functional, cell-based; conditions: Homo sapiens;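 note: growth inhibition of the human DEL cell line, read out with a cell viability assay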
Description: SANGER: Inhibition of human DEL cell growth in a cell viability assay.

[3] = tested on: DOHH-2; format: functional, cell-based; conditions: Homo sapiens;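 note: growth inhibition of human DOHH-2 cells, read out with a cell viability assay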
Description: SANGER: Inhibition of human DOHH-2 cell growth in a cell viability assay.

[4] = tested on: DOK; format: functional, cell-based, Homo sapiens; conditions: Homo sapiens, DOK;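 note: cell viability assay read-out, values reflect inhibition of cell growth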
Description: SANGER: Inhibition of human DOK cell growth in a cell viability assay.

[5] = tested on: Daoy; format: functional, cell-based, Homo sapiens; conditions: Homo sapiens, Daoy;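 note: daoy cell growth inhibition, read out as cell viability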
Description: SANGER: Inhibition of human Daoy cell growth in a cell viability assay.

[6] = tested on: ETK-1; format: functional, cell-based, Homo sapiens; conditions: Homo sapiens, ETK-1;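 note: growth inhibition of human ETK-1 cells, read out with a cell viability assay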
Description: SANGER: Inhibition of human ETK-1 cell growth in a cell viability assay.

[7] = tested on: EW-1; format: functional, cell-based, Homo sapiens; conditions: Homo sapiens, EW-1;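 note: growth inhibition of the human EW-1 cell line, read out by a cell viability assay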
Description: SANGER: Inhibition of human EW-1 cell growth in a cell viability assay.

[8] = tested on: EW-18; format: functional, cell-based; conditions: Homo sapiens;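 note: growth inhibition of EW-18 cells, read out by a cell viability assay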
Description: SANGER: Inhibition of human EW-18 cell growth in a cell viability assay.

[9] = tested on: EW-24; format: functional, cell-based; conditions: Homo sapiens;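 note: human EW-24 cancer cell line, growth inhibition read out via a cell viability assay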
Description: SANGER: Inhibition of human EW-24 cell growth in a cell viability assay.

[10] = tested on: GCIY; format: functional, cell-based, Homo sapiens; conditions: Homo sapiens, GCIY;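 note: growth inhibition of the human GCIY cell line, read out by a cell viability assay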
Description: SANGER: Inhibition of human GCIY cell growth in a cell viability assay.

[11] = tested on: HCC2157; format: functional, cell-based; conditions: Homo sapiens;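 note: growth inhibition of the cancer cell line, read out as cell viability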
Description: SANGER: Inhibition of human HCC2157 cell growth in a cell viability assay.

[12] = tested on: HEC-1; format: functional, cell-based, Homo sapiens; conditions: Homo sapiens, HEC-1;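 note: growth inhibition of the cell line, read out with a cell viability assay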
Description: SANGER: Inhibition of human HEC-1 cell growth in a cell viability assay.

[13] = tested on: HLE; format: functional, cell-based, Homo sapiens; conditions: Homo sapiens, HLE;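 note: growth inhibition of human HLE cells, read out by a cell viability assay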
Description: SANGER: Inhibition of human HLE cell growth in a cell viability assay.

[14] = tested on: HuO-3N1; format: functional, cell-based, Homo sapiens; conditions: Homo sapiens, HuO-3N1;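 note: cell viability readout used to measure how strongly compounds suppress proliferation of human HuO-3N1 cells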
Description: SANGER: Inhibition of human HuO-3N1 cell growth in a cell viability assay.

[15] = tested on: JAR; format: functional, cell-based, Homo sapiens; conditions: Homo sapiens, JAR;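 note: growth inhibition of human JAR cells determined with a cell viability assay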
Description: SANGER: Inhibition of human JAR cell growth in a cell viability assay.

[16] = tested on: KU-19-19; format: functional, cell-based, Homo sapiens; conditions: Homo sapiens, KU-19-19
Description: SANGER: Inhibition of human KU-19-19 cell growth in a cell viability assay.

[17] = tested on: L-428; format: functional, cell-based; conditions: Homo sapiens
Description: SANGER: Inhibition of human L-428 cell growth in a cell viability assay.

[18] = tested on: LS-513; format: functional, cell-based, Homo sapiens; conditions: Homo sapiens, LS-513
Description: SANGER: Inhibition of human LS-513 cell growth in a cell viability assay.

[19] = tested on: MEL-HO; format: functional, cell-based, Homo sapiens; conditions: Homo sapiens, MEL-HO
Description: SANGER: Inhibition of human MEL-HO cell growth in a cell viability assay.

[20] = tested on: MKN-45; format: functional, cell-based, Homo sapiens; conditions: Homo sapiens, MKN-45;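 note: growth inhibition of human MKN-45 cells, measured with a cell viability assay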
Description: SANGER: Inhibition of human MKN45 cell growth in a cell viability assay.

[21] = tested on: MZ2-MEL; format: functional, cell-based, Homo sapiens; conditions: Homo sapiens, MZ2-MEL;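 note: growth inhibition of MZ2-MEL cells read out with a cell viability assay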
Description: SANGER: Inhibition of human MZ2-MEL cell growth in a cell viability assay.

[22] = tested on: NCI-H1838; format: functional, cell-based, Homo sapiens; conditions: Homo sapiens, NCI-H1838;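 note: growth inhibition of NCI-H1838 cells, determined with a cell viability readout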
Description: SANGER: Inhibition of human NCI-H1838 cell growth in a cell viability assay.

[23] = tested on: NCI-H226; format: functional, cell-based, Homo sapiens; conditions: Homo sapiens, NCI-H226;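 note: cell viability read-out used to gauge growth inhibition of the cells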
Description: SANGER: Inhibition of human NCI-H226 cell growth in a cell viability assay.

[24] = tested on: NCI-H510A; format: functional, cell-based; conditions: Homo sapiens;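 note: growth inhibition of NCI-H510A cells, read out with a cell viability assay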
Description: SANGER: Inhibition of human NCI-H510A cell growth in a cell viability assay.

[25] = tested on: NCI-H727; format: functional, cell-based, Homo sapiens; conditions: Homo sapiens, NCI-H727;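 note: growth inhibition of human NCI-H727 cells, read out with a cell viability assay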
Description: SANGER: Inhibition of human NCI-H727 cell growth in a cell viability assay.

[26] = tested on: NOS-1; format: functional, cell-based, Homo sapiens; conditions: Homo sapiens, NOS-1;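 note: growth inhibition of the human NOS-1 cell line, read out with a cell viability assay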
Description: SANGER: Inhibition of human NOS-1 cell growth in a cell viability assay.

[27] = tested on: NUGC-3; format: functional, cell-based, Homo sapiens; conditions: Homo sapiens, NUGC-3;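 note: growth inhibition of human NUGC-3 cells, read out with a cell viability assay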
Description: SANGER: Inhibition of human NUGC-3 cell growth in a cell viability assay.

[28] = tested on: RERF-LC-MS; format: functional, cell-based, Homo sapiens; conditions: Homo sapiens, RERF-LC-MS;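 note: growth inhibition of human RERF-LC-MS cells, read out by a cell viability assay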
Description: SANGER: Inhibition of human RERF-LC-MS cell growth in a cell viability assay.

[29] = tested on: RKO; format: functional, cell-based, Homo sapiens; conditions: Homo sapiens, RKO;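 note: growth inhibition of human RKO cells, read out with a cell viability assay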
Description: SANGER: Inhibition of human RKO cell growth in a cell viability assay.

[30] = tested on: RMG-I; format: functional, cell-based, Homo sapiens; conditions: Homo sapiens, RMG-I;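 note: growth inhibition of human RMG-I cells, read out with a cell viability assay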
Description: SANGER: Inhibition of human RMG-I cell growth in a cell viability assay.

[31] = tested on: S-117; format: functional, cell-based, Homo sapiens; conditions: Homo sapiens, S-117
Description: SANGER: Inhibition of human S-117 cell growth in a cell viability assay.

[32] = tested on: SF-539; format: functional, cell-based, Homo sapiens; conditions: Homo sapiens, SF-539;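 note: Read-out is a cell viability assay, with IC50 reflecting inhibition of cell growth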
Description: SANGER: Inhibition of human SF539 cell growth in a cell viability assay.

[33] = tested on: SH-4; format: functional, cell-based, Homo sapiens; conditions: Homo sapiens, SH-4;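 note: growth inhibition of SH-4 cells, read out with a cell viability assay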
Description: SANGER: Inhibition of human SH-4 cell growth in a cell viability assay.

[34] = tested on: SK-MEL-1; format: functional, cell-based; conditions: Homo sapiens;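 note: growth inhibition of human SK-MEL-1 cells, read out by a cell viability assay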
Description: SANGER: Inhibition of human SK-MEL-1 cell growth in a cell viability assay.

[35] = tested on: SK-PN-DW; format: functional, cell-based; conditions: Homo sapiens;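 note: growth inhibition measured with a viability assay on these cells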
Description: SANGER: Inhibition of human SK-PN-DW cell growth in a cell viability assay.

[36] = tested on: SNU-C2B; format: functional, cell-based, Homo sapiens; conditions: Homo sapiens, SNU-C2B;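 note: cell viability readout used to measure compound-driven suppression of SNU-C2B cell proliferation, IC50 marking half-maximal growth inhibition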
Description: SANGER: Inhibition of human SNU-C2B cell growth in a cell viability assay.

[37] = tested on: SW1710; format: functional, cell-based, Homo sapiens; conditions: Homo sapiens, SW1710;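 note: growth inhibition of SW1710 cells, determined with a cell viability assay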
Description: SANGER: Inhibition of human SW1710 cell growth in a cell viability assay.

[38] = tested on: SW48; format: functional, cell-based, Homo sapiens; conditions: Homo sapiens, SW48;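 note: growth inhibition of SW48 cells, read out with a cell viability assay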
Description: SANGER: Inhibition of human SW48 cell growth in a cell viability assay.

[39] = tested on: SW684; format: functional, cell-based, Homo sapiens; conditions: Homo sapiens, SW684;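 note: growth inhibition of human SW684 cells, measured by a cell viability assay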
Description: SANGER: Inhibition of human SW684 cell growth in a cell viability assay.

[40] = tested on: SW756; format: functional, cell-based, Homo sapiens; conditions: Homo sapiens, SW756;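 note: growth inhibition of human SW756 cells, read out with a cell viability assay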
Description: SANGER: Inhibition of human SW756 cell growth in a cell viability assay.

[41] = tested on: T-24; format: functional, cell-based, Homo sapiens; conditions: Homo sapiens, T-24;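 note: growth inhibition of T-24 cells, read out with a cell viability assay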
Description: SANGER: Inhibition of human T-24 cell growth in a cell viability assay.

[42] = tested on: T98G; format: functional, cell-based, Homo sapiens; conditions: Homo sapiens, T98G;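 note: growth inhibition of T98G cells, read out by a cell viability assay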
Description: SANGER: Inhibition of human T98G cell growth in a cell viability assay.

[43] = tested on: 639-V; format: functional, cell-based, Homo sapiens; conditions: Homo sapiens, 639-V;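 note: growth inhibition of 639-V cells, read out with a cell viability assay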
Description: SANGER: Inhibition of human 639-V cell growth in a cell viability assay.

[44] = tested on: ACHN; format: functional, cell-based, Homo sapiens; conditions: Homo sapiens, ACHN;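 note: cell viability read-out used to gauge how strongly growth of human ACHN cells is suppressed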
Description: SANGER: Inhibition of human ACHN cell growth in a cell viability assay.

[45] = tested on: BCPAP; format: functional, cell-based, Homo sapiens; conditions: Homo sapiens, BCPAP;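 note: growth inhibition of BCPAP cells, read out in a cell viability assay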
Description: SANGER: Inhibition of human BCPAP cell growth in a cell viability assay.

[46] = tested on: CAL-54; format: functional, cell-based, Homo sapiens; conditions: Homo sapiens, CAL-54;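 note: growth inhibition of CAL-54 cells, read out by a viability measurement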
Description: SANGER: Inhibition of human CAL-54 cell growth in a cell viability assay.

[47] = tested on: TE-11; format: functional, cell-based, Homo sapiens; conditions: Homo sapiens, TE-11;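 note: growth inhibition of human TE-11 cells, read out by a cell viability assay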
Description: SANGER: Inhibition of human TE-11 cell growth in a cell viability assay.

[48] = tested on: TGW; format: functional, cell-based; conditions: Homo sapiens;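 note: growth inhibition of human TGW cells, read out with a cell viability assay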
Description: SANGER: Inhibition of human TGW cell growth in a cell viability assay.

[49] = tested on: UACC-62; format: functional, cell-based, Homo sapiens; conditions: Homo sapiens, UACC-62;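 note: growth inhibition of human UACC-62 cells, read out by a cell viability assay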
Description: SANGER: Inhibition of human UACC-62 cell growth in a cell viability assay.

[50] = tested on: UACC-893; format: functional, cell-based, Homo sapiens; conditions: Homo sapiens, UACC-893
Description: SANGER: Inhibition of human UACC-893 cell growth in a cell viability assay.

[51] = tested on: CAPAN-1; format: functional, cell-based, Homo sapiens; conditions: Homo sapiens, CAPAN-1;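 note: growth suppression of CAPAN-1 cells, read out by a cell viability assay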
Description: SANGER: Inhibition of human CAPAN-1 cell growth in a cell viability assay.

[52] = tested on: COLO-679; format: functional, cell-based, Homo sapiens; conditions: Homo sapiens, COLO-679
Description: SANGER: Inhibition of human COLO-679 cell growth in a cell viability assay.

Structure (SMILES): Cc1cnc(-c2cnc(NCCNc3ccc(C#N)cn3)nc2-c2ccc(Cl)cc2Cl)[nH]1 [LADUVIGLUSIB]
- pIC50 [1]: < 5.59
- pIC50 [2]: < 5.59
- pIC50 [3]: < 5.59
- pIC50 [4]: < 5.59
- pIC50 [5]: < 5.59
- pIC50 [6]: < 5.59
- pIC50 [7]: < 5.59
- pIC50 [8]: < 5.59
- pIC50 [9]: < 5.59
- pIC50 [10]: < 5.59
- pIC50 [11]: < 5.59
- pIC50 [12]: < 5.59
- pIC50 [13]: < 5.59
- pIC50 [14]: < 5.59
- pIC50 [15]: < 5.59
- pIC50 [16]: < 5.59
- pIC50 [17]: < 5.59
- pIC50 [18]: < 5.59
- pIC50 [19]: < 5.59
- pIC50 [20]: < 5.59
- pIC50 [21]: < 5.59
- pIC50 [22]: < 5.59
- pIC50 [23]: < 5.59
- pIC50 [24]: < 5.59
- pIC50 [25]: < 5.59
- pIC50 [26]: < 5.59
- pIC50 [27]: < 5.59
- pIC50 [28]: < 5.59
- pIC50 [29]: < 5.59
- pIC50 [30]: < 5.59
- pIC50 [31]: 6.04
- pIC50 [32]: < 5.59
- pIC50 [33]: < 5.59
- pIC50 [34]: < 5.59
- pIC50 [35]: < 5.59
- pIC50 [36]: < 5.59
- pIC50 [37]: < 5.59
- pIC50 [38]: < 5.59
- pIC50 [39]: < 5.59
- pIC50 [40]: < 5.59
- pIC50 [41]: < 5.59
- pIC50 [42]: < 5.59
- pIC50 [43]: < 5.59
- pIC50 [44]: < 5.59
- pIC50 [45]: 5.78
- pIC50 [46]: < 5.59
- pIC50 [47]: < 5.59
- pIC50 [48]: < 5.59
- pIC50 [49]: < 5.59
- pIC50 [50]: < 5.59
- pIC50 [51]: < 5.59
- pIC50 [52]: < 5.59

Structure (SMILES): C[C@]1(O)C[C@@H](c2nc(-c3ccc4ccc(-c5ccccc5)nc4c3)c3c(N)nccn32)C1 [LINSITINIB]
- pIC50 [1]: < 5.59
- pIC50 [2]: < 5.59
- pIC50 [3]: < 5.59
- pIC50 [4]: 6.25
- pIC50 [5]: < 5.59
- pIC50 [6]: < 5.59
- pIC50 [7]: 7.07
- pIC50 [8]: 6.57
- pIC50 [9]: < 5.59
- pIC50 [10]: < 5.59
- pIC50 [11]: < 5.59
- pIC50 [12]: < 5.59
- pIC50 [13]: < 5.59
- pIC50 [14]: < 5.59
- pIC50 [15]: < 5.59
- pIC50 [16]: < 5.59
- pIC50 [17]: < 5.59
- pIC50 [18]: 5.69
- pIC50 [19]: < 5.59
- pIC50 [20]: < 5.59
- pIC50 [21]: < 5.59
- pIC50 [22]: < 5.59
- pIC50 [23]: < 5.59
- pIC50 [24]: < 5.59
- pIC50 [25]: 6.70
- pIC50 [26]: 6.28
- pIC50 [27]: < 5.59
- pIC50 [28]: < 5.59
- pIC50 [29]: < 5.59
- pIC50 [30]: < 5.59
- pIC50 [31]: < 5.59
- pIC50 [32]: < 5.59
- pIC50 [33]: < 5.59
- pIC50 [34]: < 5.59
- pIC50 [35]: 5.72
- pIC50 [36]: < 5.59
- pIC50 [37]: < 5.59
- pIC50 [38]: < 5.59
- pIC50 [39]: < 5.59
- pIC50 [40]: < 5.59
- pIC50 [41]: < 5.59
- pIC50 [42]: < 5.59
- pIC50 [43]: < 5.59
- pIC50 [44]: < 5.59
- pIC50 [45]: < 5.59
- pIC50 [46]: < 5.59
- pIC50 [47]: 7.11
- pIC50 [48]: < 5.59
- pIC50 [49]: < 5.59
- pIC50 [50]: < 5.59
- pIC50 [51]: < 5.59
- pIC50 [52]: < 5.59
